Source: patent US20240041878A1, “APELIN RECEPTOR MODULATORS FOR TREATMENT OF A DISORDER OR DISEASE ASSOCIATED WITH BBB PERMEABILITY” (BioAge Labs, Inc., priority 2022, published 2024)

Tests used:
wildtype motor neurons = test: Neurons exposed to SOD1^G93A astrocyte-conditioned media or co-cultured with SOD1^G93A astrocytes; type: cell-based, mouse
Description: This study conducts co-culture experiments using SOD1^G93A astrocytes and wildtype motor neurons to determine effects of apelin signaling on rescue of neuronal survival and function. Co-culture experiments are conducted by measuring viability, neuronal homeostasis, and morphological endpoints.
Neurons are isolated from mouse spinal cords as previously described in Example 12 above. Non-astrocytic flowthrough following column-based cell isolation (MACS) are collected and cultured in serum-free, neuron-selective media in 12- or 96-well plates for at least 14 days before experimentation. For specific selection of spinal cord motor neurons, wildtype C57BL/6J mouse PNDO or adult spinal cords are processed using published methods (Beaudet, 2015).
Neurons are cultured for at least 14 days before the start of experimentation. First, ACM from wildtype or SOD astrocytes exposed to 250 nM BGE-105 (or vehicle) are added to neurons seeded in 96 well plates for 6, 12, 24, or 48 hours followed by analysis of neuronal survival using the ApoTox-Glo Triplex kit (Promega) to determine optimal exposure time. […]

Mouse astrocyte cells [1] = test: Astrocyte gene expression (RT-PCR) after reactive astrocyte cocktail (RAC); type: cell-based
Description: (§1) Mouse astrocyte cells were seeded on 24-well plates at a low density of approximately 20 k astrocytes per well. To stimulate astrocytes into a reactive state found in aging and neurodegenerative diseases per previous publications (Liddelow et al., 2017; Barbar et al., 2020), a combination of the cytokines TNF-α and IL-1α, and complement factor C1q, were added at 30 ng/mL, 3 ng/mL, and 400 ng/mL, respectively, into astrocyte culture media to make 'reactive astrocyte cocktail' (RAC) media. […] Bachem, Cat. #4029110), BAY-11-7082 (50 μM; Abcam, Cat. #ab141228) or equal volume of vehicle (0.01% DMSO in PBS) (hereafter referred to as 'RAC treatment'). Cells in Groups 3-6 were treated with RAC for 24 hours, with or without the test compounds (n=4 per group). • Group 1: Control [CON] • Group 2: CON+BGE-105 (50 nM) [CON+105] • Group 3: Reactive control treated with RAC only [RAC] • Group 4: RAC+BGE-105 (50 nM) [RAC+105] • Group 5: RAC+Pyrm-Apelin-13 (50 nM) • Group 6: RAC+BAY-11-7082 (NF-κB inhibitor; 50 μM) [RAC+BAY] Media from each tested cell group was collected for cytokine release analysis. Cells were lysed for RNA collection and RT-PCR was performed to synthesis cDNA under standard conditions. Next, transcriptome analysis was performed to determine the expression level of astrocyte genes or astrocyte responsive genes. Changes of expression was normalized to β-actin (FIGS. 8 and 9). Exemplary biomarkers include CCL2, CXCL10, CXCL11, CXCL1, CXCL2, CXCL3, CXCL8, EDN1, […]3, CIS, CTRL, C3, CFB, VEGF, and IL-6.

Mouse astrocyte cells [2] = test: CXCL1 and IL-6 ELISA of astrocyte culture media after RAC treatment; type: cell-based
Description: as §1, with “To” for “Mouse astrocyte cells were seeded on 24-well plates at a low density of approximately 20 k astrocytes per well. To”, “IL-6. For analysis of cytokines secreted by astrocytes, culture media was collected after RAC treatment, centrifuged at 10,000 RPM for 5 minutes to pellet any debris, and supernatant was transferred to a new tube and assayed immediately or frozen at -80° C. For individual analysis of CXCL1 or IL-6 concentrations, cell culture supernatant was diluted 1:50 or 1:10, respectively, and assessed using mouse-specific ELISA kits per manufacturer's protocols (R&D Systems, Cat. #DY453 and #DY406).” for “IL-6.”

**Q.** Which results are given for COc1cccc(OC)c1-n1c(NS(=O)(=O)[C@@H](C)[C@H](C)c2ncc(C)cn2)nnc1-c1cncc(C)c1 [BGE-105, (2S,3R)—N-(4-(2,6-dimethoxyphenyl)-5-(5-methyl-3-pyridinyl)-4H-1,2,4-triazol-3-yl)-3-(5-methyl-2-pyrimidinyl)-2-butanesulfonamide]?
**A.** neuron cell death caused by SOD1^G93A ACM (wildtype motor neurons; pretreatment of SOD1^G93A astrocytes with 250 nM BGE-105): attenuated; synaptic protein expression and neuronal structural integrity (wildtype motor neurons; wildtype neurons cultured with SOD1^G93A astrocytes, 250 nM BGE-105): preserves synaptic protein expression and neuronal structural integrity; expression of biomarkers CXCL1, C3 and IL-6 in control astrocytes (Mouse astrocyte cells [1]; CON+105, BGE-105 50 nM, no RAC): no or minimal impact; reduction of IL-6 gene expression in RAC-induced reactive astrocytes (Mouse astrocyte cells [1]; RAC+105 (50 nM) versus RAC, 24 hours, p<0.0001): 5-10 fold; reduction of C3 gene expression in RAC-induced reactive astrocytes (Mouse astrocyte cells [1]; RAC+105 (50 nM) versus RAC, 24 hours, p=0.0015): 10-20 fold; CXCL1 gene expression in RAC-induced reactive astrocytes (Mouse astrocyte cells [1]; RAC+105 (50 nM) versus RAC, 24 hours, p=0.0204): significantly reduced; concentration of CXCL1 and IL-6 in media of control astrocytes (Mouse astrocyte cells [2]; CON+105 (50 nM) versus CON): no or minimal impacts; astrocyte release of CXCL1 (FIG. 9) (Mouse astrocyte cells [2]; RAC+105, BGE-105 50 nM, versus RAC, p=0.0032): greatly reduced; CXCL1 concentration/release (FIG. 12) (Mouse astrocyte cells [2]; RAC+BGE-105 50 nM): about 40000 pg/ml; IL-6 concentration/release (FIG. 12) (Mouse astrocyte cells [2]; RAC+BGE-105 50 nM): 5000 to 10000 pg/mL; astrocytic release of IL-6 (FIG. 9) (Mouse astrocyte cells [2]; RAC+BGE-105, 50 nM, versus RAC, p=0.0008): reduced
